Consider 57 compounds from patent US20240016777A1, “COMPOUNDS AND METHODS FOR TREATING VIRAL INFECTIONS” (priority 2020, published 2024).

The target in this test is SARS-CoV-2 M^pro (Severe acute respiratory syndrome coronavirus 2 (2019-nCoV) (SARS-CoV-2), UniProt P0DTD1). In words: biochemical. Particulars: for pIC50: compounds evaluated at 0.015-300 μM, read-out: IC50.
[1] abbreviates: read-out: Activity (% enzyme activity by fluorescence relative to initial enzyme activity), compound at 17 μM, duplicates, 20 min pre-incubation.
The mark [2] stands for this setting: compound at 17 μM, duplicates, 20 min pre-incubation, read-out: Activity (% enzyme activity by fluorescence relative to initial enzyme activity).

Each structure is given as a SMILES string. pIC50: −log10 of the molar value. Read-outs that look alike come from different tables or passages of the source. Where only a bound is given, the exact number is not on record here.

For `CC(C)=CCc1c([C@H]2CCc3ccc(O)cc3O2)ccc(O)c1O` [Kazinol U], the remaining activity at 17 µM under setting [1] is more than 80%.
`COc1ccc(-c2oc3c(CC=C(C)C)c(O)cc(O)c3c(=O)c2O[C@@H]2O[C@@H](C)[C@H](OC(C)=O)[C@@H](O[C@@H]3O[C@H](COC(C)=O)[C@@H](O)[C@H](O)[C@H]3O)[C@H]2O)cc1` [Korepimedoside A]: the remaining activity at 17 µM under setting [1] lay within 10 to 80%.
As to `C=C(C)[C@H](CCC(C)(C)O)Cc1c(O)cc(OC)c2c1O[C@H](c1ccc(O)cc1O)CC2=O` [Kurarinol], the remaining activity at 17 µM under setting [1] is more than 80%.
Take `C=C(C)[C@H](CC=C(C)C)Cc1c(O)cc(OC)c2c1O[C@H](c1ccc(O)cc1O)CC2=O` [Kurarinone]: the remaining activity at 17 µM under setting [1] was more than 80%.
With `C=C(C)[C@H](CC=C(C)C)Cc1c(O)cc(O)c2c1O[C@H](c1ccccc1O)CC2=O` [Kushenol A], the remaining activity at 17 µM under setting [1] is more than 80%.
For the compound `C=C(C)[C@H](CC=C(C)C)Cc1c(O)c(CC=C(C)C)c(O)c2c1O[C@H](c1ccc(O)cc1O)CC2=O` [Kushenol B], the remaining activity at 17 µM under setting [1] is more than 80%.
As for `C=C(C)[C@H](CC=C(C)C)Cc1c(O)cc(O)c2c(=O)c(O)c(-c3ccc(O)cc3O)oc12` [Kushenol C], the remaining activity at 17 µM under setting [2] was 10 to 80%.
Consider `CC(C)=CCc1c(O)c(CC=C(C)C)c2c(c1O)C(=O)C[C@@H](c1ccc(O)cc1O)O2` [Kushenol E], for which, under setting [1], the remaining activity at 17 µM lay in the range of 10 to 80%.
Still for that read-out and setting: to `C=C(C)[C@H](CC=C(C)C)Cc1c(O)cc(O)c2c1O[C@H](c1ccc(O)cc1O)CC2=O` [Kushenol F] belongs more than 80%; to `C=C(C)[C@H](CC=C(C)C)Cc1c(O)cc(OC)c2c1O[C@H](c1ccc(O)cc1O)[C@@H](O)C2=O` [Kushenol I], more than 80%.
The same measure, in the same setting: in the case of `C=C(C)[C@H](CCC(C)(C)O)Cc1c(O)cc(OC)c2c1O[C@H](c1ccc(O)cc1O)[C@H](O)C2=O` [Kushenol K] it was more than 80%; in that of `CC(C)=CCc1c(O)c(CC=C(C)C)c2c(c1O)C(=O)[C@H](O)[C@@H](c1ccc(O)cc1O)O2` [Kushenol L], more than 80%; in that of `C=C(C)[C@H](CC=C(C)C)Cc1c(O)cc(OC)c2c1O[C@H](c1ccc(O)cc1O)[C@H](O)C2=O` [Kushenol N], more than 80%.
Consider `COc1cc([C@@H]2CC(=O)c3c(O)cc(O)c(CC=C(C)C)c3O2)c(O)cc1O` [Kushenol W], for which, under setting [1], the remaining activity at 17 µM was more than 80%.
On the same count and under the same terms, to `C=C(C)C(CC=C(C)C)Cc1c(O)cc(O)c2c1O[C@H](c1ccc(O)cc1O)[C@@H](O)C2=O` (some centres unmarked) [Kushenol X] belongs more than 80%; to `CC(C)=CCCC1(C)C=Cc2c(cc3c(c2O)C(=O)C[C@@H](c2ccc(O)cc2O)O3)O1` (some centres unmarked) [Kuwanol C], 10 to 80%.
With `CC(C)=CCc1c(O)ccc(C(=O)[C@@H]2C(c3c(O)cc(O)c4c(=O)c(CC=C(C)C)c(-c5ccc(O)cc5O)oc34)C=C(C)CC2c2ccc(O)cc2O)c1O` (some centres unmarked) [Kuwanon H], the remaining activity at 17 µM under setting [2] fell in the range of 10 to 80%.
For the compound `C=C(C)[C@H](CC=C(C)C)Cc1c(O)cc(O)c2c1O[C@H](c1ccc(O)cc1OC)CC2=O` [Leachianone A], the “Activity (% enzyme activity by fluorescence relative to initial enzyme activity)” value (compound at 17 μM, duplicates, 20 min pre-incubation) was “+ (≥80% enzyme activity as indicated by fluorescence measurements)”.
As for `CC(C)=CCc1c(O)cc(O)c2c1O[C@H](c1ccc(O)cc1O)CC2=O` [Leachianone G], the remaining activity at 17 µM under setting [1] was more than 80%.
For `CC(C)=CCc1c(O)cc(O)c2c(=O)cc(-c3ccc(O)cc3)oc12` [Licoflavone C], the remaining activity at 17 µM under setting [2] was more than 80%.
For the compound `CC(C)=CCc1c(O)cc2oc(-c3ccc(O)cc3)c(O)c(=O)c2c1O` [Licoflavonol], the remaining activity at 17 µM under setting [1] is more than 80%.
With `CC(C)=CCc1c(O)ccc(-c2coc3cc(O)cc(O)c3c2=O)c1O` [Licoisoflavone A], under setting [2], the remaining activity at 17 µM is more than 80%.
Take `COc1c(CC=C(C)C)c(O)cc2c1C[C@H](c1ccc(O)c(CC=C(C)C)c1O)CO2` [Licoricidin]: the remaining activity at 17 µM under setting [1] was more than 80%.
Same read-out and setting: in the case of `COc1cc(O)c(-c2coc3cc(O)ccc3c2=O)c(OC)c1CC=C(C)C` [Licoricone] it was more than 80%; in that of `COc1cc2c(c(OC)c1CC=C(C)C)C[C@H](c1ccc(O)c(CC=C(C)C)c1O)CO2` [Licorisoflavan A], 10 to 80%; in that of `CC(C)=CCc1cc(-c2coc3cc(O)c(CC=C(C)C)c(O)c3c2=O)ccc1O` [Lupalbigenin], more than 80%.
For `CC(C)=CCc1c(O)cc2c(c1O)C(=O)[C@@]1(O)c3ccc(O)cc3O[C@H]1O2` [Lupinol C], the remaining activity at 17 µM under setting [1] is more than 80%.
`CC(C)=CCc1c(O)cc(O)c2c(=O)c(-c3ccc(O)cc3)coc12` [Lupiwighteone]: under setting [1], the remaining activity at 17 µM is more than 80%.
On the same count and under the same terms, to `CC(C)=CCc1c(O)cc2occ(-c3ccc(O)cc3O)c(=O)c2c1O` [Luteone] belongs more than 80%.
What is called pIC50 is the IC50 on a negative log10 scale, so that one unit is a factor of ten. For `COc1cc(O)c2c(c1CC=C(C)C)O[C@H](c1cc(CC=C(C)C)c(O)cc1O)CC2=O` [Maackiaflavanone], the pIC50 was 5.52. Further, the remaining activity at 17 µM under setting [2] was less than 10%.
In the case of `CC(C)=CCc1c(-c2ccc(O)cc2O)oc2c3c(cc(O)c2c1=O)OC(C)(C)C=C3` [Morusin], the remaining activity at 17 µM under setting [2] was 10 to 80%.
As for `CC(C)=CCc1c(-c2ccc(O)cc2O)oc2c(CC=C(C)C)c(O)cc(O)c2c1=O` [Mulberrin], the remaining activity at 17 µM under setting [1] was more than 80%.
For the compound `CC(C)=CCCC1=C[C@@H](c2c(O)cc3oc(-c4ccc(O)cc4O)cc(=O)c3c2O)[C@H](C(=O)c2ccc(O)cc2O)[C@@H](c2ccc(O)cc2O)C1` [Multicaulisin], the pIC50 was 4.77. The remaining activity at 17 µM under setting [2] is less than 10%.
With `CC(C)=CCc1cc(-c2coc3cc(O)ccc3c2=O)ccc1O` [Neobavaisoflavone], under setting [1], the remaining activity at 17 µM fell in the range of 10 to 80%.
`CC(C)=CCc1c2c(c3occ(-c4ccc(O)cc4)c(=O)c3c1O)C=CC(C)(C)O2` [Osajin]: under setting [2], the remaining activity at 17 µM was more than 80%.
As to `CC(C)=CCc1c(O)ccc2c1O[C@H]1c3ccc(O)cc3OC[C@@H]21` [Phaseollidin], the remaining activity at 17 µM under setting [1] is more than 80%.
Same read-out and setting: to `CC(C)=CCc1c(O[C@@H]2O[C@H](CO)[C@@H](O)[C@H](O)[C@H]2O)cc(O)c2c1O[C@H](c1ccc(O)cc1)[C@@H](O)C2=O` [Phellamurin] belongs more than 80%.
On to `O=C1CC(c2ccccc2)Oc2cc(O)cc(O)c21` (centres unmarked) [Pinocembrin], for which the “Mpro inhibitory activity (comparison in words)” value was “relatively poor inhibition”.
Regarding `COc1ccc(-c2oc3c(CC=C(C)C)c(O)cc(O)c3c(=O)c2O[C@@H]2O[C@@H](C)[C@H](O)[C@@H](O)[C@H]2O[C@@H]2O[C@H](CO)[C@@H](O)[C@H](O)[C@H]2O)cc1` [Sagittatoside A], under setting [1], the remaining activity at 17 µM was more than 80%.
Same read-out and setting: to `COc1ccc(-c2oc3c(CC=C(C)C)c(O)cc(O)c3c(=O)c2O[C@@H]2O[C@@H](C)[C@H](O)[C@@H](O)[C@H]2O[C@@H]2OC[C@@H](O)[C@H](O)[C@H]2O)cc1` [Sagittatoside B] belongs more than 80%; to `COc1ccc(-c2oc3c(CC=C(C)C)c(O)cc(O)c3c(=O)c2O[C@@H]2O[C@@H](C)[C@H](O)[C@@H](OC(C)=O)[C@H]2O[C@@H]2O[C@H](CO)[C@@H](O)[C@H](O)[C@H]2O)cc1` [Sagittatoside C], more than 80%; to `CC(C)=CCCC1(C)CCc2c(cc(O)c3c2OC(c2ccc(O)cc2O)CC3=O)O1` (centres unmarked) [Sanggenol L], more than 80%.
On to `CC(C)=CCC/C(C)=C/Cc1c(O)c(CC=C(C)C)cc(C2CC(=O)c3c(O)cc(O)cc3O2)c1O` (centres unmarked) [Sanggenol P], for which, under setting [1], the remaining activity at 17 µM is more than 80%.
On the same count and under the same terms, to `CC(C)=CCCC1(C)C=Cc2c(ccc([C@@H]3CC(=O)c4c(O)cc(O)cc4O3)c2O)O1` (some centres unmarked) [Sanggenon N] belongs more than 80%; to `CC(C)=CC[C@]12Oc3cc(O)c([C@H]4C=C(C)C[C@H](c5ccc(O)cc5O)[C@H]4C(=O)c4cc(O)cc(O)c4)c(O)c3C(=O)[C@@]1(O)Oc1cc(O)ccc12` [Sanggenone C], less than 10%.
As for `CC(C)=CC[C@]12Oc3cc(O)c([C@@H]4C=C(C)C[C@H](c5ccc(O)cc5O)[C@H]4C(=O)c4cc(O)cc(O)c4)c(O)c3C(=O)[C@@]1(O)Oc1cc(O)ccc12` [Sanggenone D], under setting [1], the remaining activity at 17 µM is less than 10%.
`CC(C)=CCCC1(C)C=Cc2c(O)ccc(-c3oc4cc(O)cc(O)c4c(=O)c3CC=C(C)C)c2O1` (centres unmarked) [Sanggenone K]: the remaining activity at 17 µM under setting [1] was more than 80%.
On the same count and under the same terms, in the case of `CC(C)=CCc1c(O)cc2c(c1O)C(=O)[C@H](O)[C@@H](c1ccc(O)cc1)O2` [Shuterin] it was more than 80%.
Same read-out and setting: to `COc1cc(O)c(CC=C(C)C)c2oc(-c3ccc(O)cc3)c(O)c(=O)c12` [Sophoflavescenol] belongs more than 80%; to `CC(C)=CCc1c(O)cc(O)c2c1OC(c1cc3c(cc1O)O[C@@H](c1ccc(O)cc1)[C@@H]3c1cc(O)cc(O)c1)CC2=O` (some centres unmarked) [Sophoraflavanone H], more than 80%; to `C=C(C)[C@H](CC=C(C)C)Cc1c(O)cc(O)c2c1OC(c1cc3c(cc1O)O[C@@H](c1ccc(O)cc1)[C@@H]3c1cc(O)cc(O)c1)CC2=O` (some centres unmarked) [Sophoraflavanone I], 10 to 80%.
Still for that read-out and setting: in the case of `O=C1CC(c2ccc(O)cc2O)Oc2cc(O)cc(O)c21` (centres unmarked) [Steppogenin] it was more than 80%.
With `COc1c(-c2ccc(O)cc2)oc2cc(O)c(CC=C(C)C)c(O)c2c1=O` [Topazolin], under setting [1], the remaining activity at 17 µM is more than 80%.
Take `COc1c(-c2cc(O)c(O)c(CC=C(C)C)c2)oc2cc(O)cc(O)c2c1=O` [Uralenol-3-methylether]: under setting [1], the remaining activity at 17 µM was more than 80%.
Same read-out and setting: to `CC(C)=CCc1cc(-c2oc3cc(O)cc(O)c3c(=O)c2O)cc(O)c1O` [Uralenol] belongs more than 80%; to `CC(C)=CCc1c(O)cc2occ(-c3ccc(O)cc3)c(=O)c2c1O` [Wighteone], more than 80%.
On the same count and under the same terms, to `CC(C)=CCc1cc([C@@H]2CC(=O)c3c(O)cc(O)cc3O2)cc(CC=C(C)C)c1O` [abyssinone V] belongs more than 80%.
